# “Also recorded” adds a separate entry of the source.
# Columns and labels:
# [1] = system: human primary skin fibroblasts; assay: Generation of induced OLGs from skin fibroblasts by chemical treatment (morphology / conversion); type: cell-based; settings: for morphology of induced OLGs when replacing VPA: replaces VPA at the first step induction, compared to the original cocktail
# Description: (§1) Cells (1×10^4) were plated on each well of a 24-well plate. Culture in HG-DMEM (Life technologies) supplement with 10% fetal bovine serum (FBS) (Hyclone) for 2 days, replace the medium with Knockout medium supplement with 1% N2 supplement, 1% Albumax, 1% NEAA (treatment medium, all form Life technologies) or DMEM/F12 with 1% N2, 1% B27, 20 ng/mL PDGF-AA, EGF, bFGF and 10 ng/mL NT3 and added the different treatment chemical compound cocktails, The final condition are 3 mM Valproic acid for 2 days, 10 μM Y27632, 10 μM SU9516, 10 μM Forskolin (FSK) (Tocris) for 1 days; or 10 μM Mocetinostat or Pracinostat for 2 days, 10 μM Y27632, 10 μM SU9516, 10 μM Forskolin (FSK) (Tocris) for 1 days.
# [2] = system: human primary skin fibroblasts; assay: Immunofluorescence assay of oligodendrocyte markers on induced cells; type: cell-based
# Description: as §1
# The induced OLGs were fixed with 4% formaldehyde for […] at room temperature. After washing with 1×PBS, cells were permeabilized with 0.03% Triton X-100 for 5 min. The cells were washed twice with 1×PBS, and then were incubated with primary antibodies [against Olig2 antibody (1:100; Merck millipore), Nkx2.2 (1:100; Stanta Cruz), O4 antibody (1:100; Merck millipore), MBP antibody (1:100; Proteintech), PDGFRα antibody (1:100; R&D systems)] and 4′,6-diamidino-2-phenylindole (DAPI) (1:1500; Life technologies) in blocking buffer (0.02% BSA in PBS) for overnight at 4° C. Cells were washed twice in 1×PBS, followed by an incubation in CF555 goat anti-rabbit secondary antibody (1:200; Life technologies), CF488 goat anti-rabbit secondary antibody (1:200; Biotium), CF555 goat anti-mouse secondary antibody (1:200; Life technologies), CF488 goat anti-mouse secondary antibody (1:200; Biotium), CF555 goat anti-rat secondary antibody (1:200; Life technologies) in blocking buffer for 1 hr in the dark at room temperature. Cells were washed twice in 1×PBS, and the cells will be keeping in 1×PBS. Fluorescence was analyzed by using a fluorescence microscope. The fluorescence intensity of each image was analyzed by an image analysis software (Image-Pro plus 4.5 software, MD, USA). Each immunofluorescence image was quantified more than 300 cells per field.
structure (smiles),measurement,setting,value
"C=C[C@@]1(C)CC(=O)[C@]2(O)[C@@]3(C)[C@@H](O)CCC(C)(C)[C@@H]3[C@H](O)[C@H](OC(C)=O)[C@@]2(C)O1 [forskolin, (3R,4aR,5S,6S,6aS,10S,10aR, 10bS)-6,10,10b-Trihydroxy-3,4a,7,7,10a-pentamethyl-1-oxo-3-vinyldodecahydro-1H-benzo[f]chromen-5-yl acetate]",promotion of the conversion (screen for supporting factors),[1]; screen of 22 drugs on the YSG cocktail after pre-treating with VPA,significantly promoted the conversion
"Nc1ccccc1NC(=O)c1ccc(CNc2nccc(-c3cccnc3)n2)cc1 [Mocetinostat, N-(2-aminophenyl)-4-((4-(pyridin-3-yl)pyrimidin-2-ylamino)methyl)benzamide]",MBP expression (immunofluorescence),[2],expressed; also recorded: stronger expression
same,O4 expression (immunofluorescence),[2],expressed; also recorded: stronger expression
same,morphology of induced OLGs when replacing VPA,[1],more mature oligodendroglia morphology
"COc1ccc2c(c1)/C(=C/c1cnc[nH]1)C(=O)N2 [SU9516, (Z)-3-((1H-imidazol-5-yl)methylene)-5-methoxyindolin-2-one]",morphological change of fibroblasts,[1],domed-shape formation
"CCCCc1nc2cc(/C=C/C(=O)NO)ccc2n1CCN(CC)CC [Pracinostat, (E)-3-(2-butyl-1-(2-(diethylamino)ethyl)-1H-benzo[d]imidazol-5-yl)-N-hydroxyacrylamide]",MBP expression (immunofluorescence),[2],expressed; also recorded: stronger expression
same,O4 expression (immunofluorescence),[2],expressed; also recorded: stronger expression
same,morphology of induced OLGs when replacing VPA,[1],more mature oligodendroglia morphology
"C[C@@H](N)[C@H]1CC[C@H](C(=O)Nc2ccncc2)CC1 [Y27632, Trans-4-[(1R)-1-Aminoethyl]-N-(4-pyridinyl)cyclohexane-carboxamide]",morphological change of fibroblasts,[1],dendritic-like morphological change
"CCCC(CCC)C(=O)O [valproic acid, 2-Propylpentanoic acid]",reprogramming efficiency,"[1]; pretreating for 2 days before Y27632, SU9516, Go6983",enhance the reprogramming efficiency
"COc1ccc2c(c1)c(C1=C(c3c[nH]c4ccccc34)C(=O)NC1=O)cn2CCCN(C)C [Go6983, 3-{1-[3-(Dimethylamino)propyl]-5-methoxy-1H-indol-3-yl}-4-(1H-indol-3-yl)-1H-pyrrole-2,5-dione]",conversion of fibroblasts into OLG like cells,[1],dispensable for the conversion process
same,dendrite-like formation,[1]; Go6983 together with Y27632 and SU9516,promoted the dendrite-like formation

# From US12553028B2, “Method to generate induced oligodendrocyte-lineage cells and treatment using such cells” (ACADEMIA SINICA, priority 2018, dated 2026)
